Experiments:
A431 cells = assay: A431 Cell Growth Inhibition Test (MTT Assay); format: cell-based, human; conditions: for IC50: A-431, 68 h incubation
Procedure, shortened: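 Cells seeded at 2500/well in DMEM/F12 with 10% FBS, grown overnight, then exposed to compound for 68 h at 37 °C, 5% CO2. Viability by MTT (0.5 mg/ml, 4 h), DMSO-solubilised, OD 490 nm; IC50 is concentration giving 50% growth inhibition relative to controls.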

NCI-H460 cells = assay: NCI-H460 Cell Growth Inhibition Test (MTT Assay); format: cell-based; conditions: Homo sapiens, 72 h incubation
Procedure, shortened: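 Cells seeded at 2500 per well, left overnight, then exposed to compound for 72 h at 37 °C, 5% CO2. Viability by MTT (0.5 mg/ml, 3 h), DMSO-dissolved, OD 490 nm; inhibition ratio = (PC−n)/(PC−NC)×100%, IC50 from curve fit.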

Sk-Br-3 cells = assay: Sk-Br-3 Cell Growth Inhibition Test (SRB Assay); format: cell-based; conditions: Homo sapiens, 91 h incubation
Experimental: Sk-Br-3 Cell Growth Inhibition Test (SRB Assay)
1. Cell strains: Sk-Br-3 (human breast cancer cell strains);
2. SRB: available from Sigmaaldrich, goods number: S9012, lot number: 047K3751. SRB was reserved at the room temperature. 0.4% (w/v) of working solution was formulated with 1% of glacial acetic acid. The solution was reserved at 4° C.; anti-tumor compounds; DMSO
Culture medium: 90% DMEM+10% FBS;
1. A plate (10 cm) of cells in logarithmic growth phase normally cultured was collected. The culture solution was sucked out. The plate was washed with 5 mL of PBS 1-2 times;
2. PBS was sucked out. […] of 0.25% pancreatin was added to infiltrate the cells for 30 s;
3. The pancreatin was sucked out. The culture plate was placed in an incubator. Digestion was carried out for about 1.5-2 min at 37° C.;
4. 4 mL of complete culture solution was added to the culture plate to stop the digestion. The cells were carefully scoured with micropipette (1 ml) to give a uniform single cell suspension;
5. Cell suspension was counted. The suspension was diluted to 1×10^5/ml. The resulting suspension was developed uniformly on a plate by 10000 cells/100 μl per well. The culture plate was incubated overnight under 5% CO2 at 37° C. In day 2, 100 μl of culture solution comprising a compound was added in each well, and further incubated for 91 h under 5% CO2 at 37° C.
6. The culture solution was sucked out. 100 uL of TCA fixed cells which were diluted to 10% were added to each well. The plate was kept in a refrigerator for 1 h at 4° C.
7. TCA stationary liquid was sucked out. Each well was washed with 150 μL of ddH2O five times;
8. After the stationary liquid was cleansed, the plate was dried in the air at the room temperature;
9. 60 μL of SRB staining solution was added in each well. The well was stained for 15 min at the room temperature;
10. The SRB staining solution was sucked out. Each well was washed with 150 μL of 1% glacial acetic acid five times;
11. After the SRB staining solution was cleansed, the plate was dried in the air at the room temperature;
12. 100 μL of 10 mM Tris was added in each well. The plate was vibrated to dissolve out SRB;
13. OD values were determined at 570 nM.
To: OD values of the starting content of cells when the cells were developed on a plate;
PC: OD values of cells after normal growth in control wells without a compound;
Ti: OD values of cells after growth in test wells with a compound;
NC: Background OD values of blank well without a compound and cells
Therefore: Ratio of cells in test wells to normal wells (% of control cell growth)=(Ti−To)/(PC−To)×100%
Ratio GI50 was concentration of a compound at the point of 50%.
Therefore: Ratio of killed cells to inoculated cells (% of killed cells)=(Ti−To)/(To−NC)×100%
LC50 was concentration point of a compound when half of the starting inoculated concentration was reached.
Concentration of a compound at this point is defined as TGI (total growth inhibition).

Compound | IC50 (A431 cells; Homo sapiens) | Growth Inhibition Ratio (%) (A431 cells; compound 1 μM, 68 h incubation) | IC50 (NCI-H460 cells) | GI50 (Sk-Br-3 cells) | inhibition at 1 µM (A431 cells; Homo sapiens, A-431, 68 h, compound 1 μM, 68 h incubation, read-out: Growth Inhibition Ratio (%))
C#Cc1cccc(Nc2c(C#N)cnc3cc(OC4CCOC4)c(NC(=O)/C=C/CN(C)C)cc23)c1 (stereo not shown) [Example 5, (E)-N-(3-CYANO-4-(3-ETHYNYLPHENYLAMINO)-7-(TETRAHYDROFURAN-3-YL-OXY)QUINOLIN-6-YL)-4-(DIMETHYLAMINO)-BUT-2-ENAMIDE] | 0.024 µM | 85% | 1.2 µM | 0.024 µM | 
CN(C)C/C=C/C(=O)Nc1cc2c(Nc3cccc(Br)c3)c(C#N)cnc2cc1OC1CCOC1 (stereo not shown) [Example 7, (E)-N-(4-(3-BROMOPHENYLAMINO)-3-CYANO-7-(TETRAHYDROFURAN-3-YL-OXY)QUINOLIN-6-YL)-4-(DIMETHYLAMINO)-BUT-2-ENAMIDE] | 0.16 µM |  | 0.94 µM | 0.213 µM | 
CN(C)C/C=C/C(=O)Nc1cc2c(Nc3ccc(OCc4ccccn4)c(Cl)c3)c(C#N)cnc2cc1OC1CCOC1 (stereo not shown) [Example 21, (E)-N-(4-(3-CHLORO-4-(PYRIDIN-2-YL-METHOXY)PHENYLAMINO)-3-CYANO-7-(TETRAHYDROFURAN-3-YL-OXY)QUINOLIN-6-YL)-4-(DIMETHYLAMINO)-BUT-2-ENAMIDE] | 0.081 µM |  | 2.7 µM | 0.0041 µM | 
C#Cc1cccc(Nc2c(C#N)cnc3cc(O[C@H]4CCOC4)c(NC(=O)/C=C/CN(CC)CC)cc23)c1 [Example 143, (S,E)-N-(3-CYANO-4-(3-ETHYNYLPHENYLAMINO)-7-(TETRAHYDROFURAN-3-YL-OXY)QUINOLIN-6-YL)-4-(DIETHYLAMINO)-BUT-2-ENAMIDE] | 0.059 µM |  |  | 0.231 µM | 70%
C#Cc1cccc(Nc2c(C#N)cnc3cc(O[C@H]4CCOC4)c(NC(=O)/C=C/CN4CCCCC4)cc23)c1 [Example 144, (S,E)-N-(3-CYANO-4-(3-ETHYNYLPHENYLAMINO)-7-(TETRAHYDROFURAN-3-YL-OXY)QUINOLIN-6-YL)-4-(PIPERIDIN-1-YL)-BUT-2-ENAMIDE] | 0.026 µM |  |  | 0.202 µM | 
C#Cc1cccc(Nc2c(C#N)cnc3cc(O[C@H]4CCOC4)c(NC(=O)/C=C/CN4CCOCC4)cc23)c1 [Example 145, (S,E)-N-(3-CYANO-4-(3-ETHYNYLPHENYLAMINO)-7-(TETRAHYDROFURAN-3-YL-OXY)QUINOLIN-6-YL)-4-(MORPHOLIN-4-YL)-BUT-2-ENAMIDE] | 0.071 µM |  |  | 0.831 µM | 
C#Cc1cccc(Nc2c(C#N)cnc3cc(O[C@H]4CCOC4)c(NC(=O)/C=C/CNC(C)(C)C)cc23)c1 [Example 146, (S,E)-N-(3-CYANO-4-(3-ETHYNYLPHENYLAMINO)-7-(TETRAHYDROFURAN-3-YL-OXY)QUINOLIN-6-YL)-4-(TERT-BUTYLAIMINO)-BUT-2-ENAMIDE] | 0.053 µM |  |  | 0.823 µM | 
C#Cc1cccc(Nc2c(C#N)cnc3cc(O[C@H]4CCOC4)c(NC(=O)/C=C/CN(C)Cc4ccccc4)cc23)c1 [Example 149, (S,E)-N-(3-CYANO-4-(3-ETHYNYLPHENYLAMINO)-7-(TETRAHYDROFURAN-3-YL-OXY)QUINOLIN-6-YL)-4-(N-METHYLBENZYLAMINO)-BUT-2-ENAMIDE] | 0.089 µM |  |  | 0.644 µM | 
N#Cc1cnc2cc(O[C@H]3CCOC3)c(NC(=O)/C=C/CN3CCOCC3)cc2c1Nc1ccc(OCc2ccccn2)c(Cl)c1 [Example 152, (S,E)-N-(4-(3-CHLORO-4-(PYRIDIN-2-YL-METHOXY)PHENYLAMINO)-3-CYANO-7-(TETRAHYDROFURAN-3-YL-OXY)QUINOLIN-6-YL)-4-(MORPHOLIN-4-YL)-BUT-2-ENAMIDE] | 0.062 µM |  |  | 0.019 µM | 
CC(C)(C)NC/C=C/C(=O)Nc1cc2c(Nc3ccc(OCc4ccccn4)c(Cl)c3)c(C#N)cnc2cc1O[C@H]1CCOC1 [Example 153, (S,E)-N-(4-(3-CHLORO-4-(PYRIDIN-2-YL-METHOXY)PHENYLAMINO)-3-CYANO-7-(TETRAHYDROFURAN-3-YL-OXY)QUINOLIN-6-YL)-4-(TERT-BUTYLAMINO)-BUT-2-ENAMIDE] | 0.053 µM |  |  | 0.0068 µM | 

Reference: patent US9187458B2, “Cyanoquinoline derivatives” (Tianjin Hemay Bio-Tech Co., LTD., priority 2010, dated 2015)
